From patent US20230016424A1, “HYBRID AMIDE DERIVATIVES OF AMPHOTERICIN B” (The Board of Trustees of the University of Illinois, priority 2019, published 2023)
Values after ≈ are worked out from the molar mass of the structure shown. One block for each compound: values may come before it.

Tests used:
[1] = system: C. tropicalis; experiment: MIC; assay type: cell-based
[2] = system: C. albicans SN250; experiment: MIC; assay type: cell-based, Candida albicans
[3] = system: A. fumigatus 91; experiment: MIC; assay type: cell-based
[4] = system: C. albicans SN250, C. albicans, C. krusei, C. glabrata, C. tropicalis, A. fumigatus 91, 1163, 1100; experiment: Average MIC over the tested strains; assay type: cell-based; details: for MIC: average over the 8 listed strains; for Average MIC for AmB analogue: value of the corresponding AmB analogue, not of the C2’epi compound
[5] = system: human erythrocytes; experiment: MHC hemolysis assay; assay type: cell-based; details: hemolysis, human erythrocytes, 37° C. 2 hours
Procedure: MHC (FIG. 21B): The protocol for the hemolysis assay was adapted from the report of Paquet and coworkers (Chem. Eur. J. 2008, 14, 2465-2481). Whole human blood (sodium heparin) was purchased from Bioreclamation LLC (Westbury, N.Y.) and stored at 4° C. and used within two days of receipt. To a 2.0 mL eppendorf tube, 1 mL of whole human blood was added and centrifuged at 10,000 g for 2 minutes. The supernatant was removed and the erythrocyte pellet was washed with 1 mL of sterile saline and centrifuged at 10,000 g for 2 minutes. The saline wash was repeated for a total of three washes. The erythrocyte pellet was suspended in 1 mL of RBC buffer (10 mM NaH2PO4, 150 mM NaCl, 1 mM MgCl2, pH 7.4) to form the erythrocyte stock suspension.
Compounds were prepared as >15 mM stock solutions in DMSO and serially diluted to the following concentrations with DMSO: 7689, 5126, 2563, 2050, 1538, 1025, 769, 513, 384, 256, 205, 154, 103, 77, 51, 26 μM. To a 0.2 mL PCR tube, 24 μL of RBC buffer and 1 μL of compound stock solution were added, which gave final concentrations of […]. Positive and negative controls were prepared by adding 1 μL of DMSO to MilliQ water or RBC buffer, respectively to 0.2 mL PCR tube. To each PCR tube, 0.63 μL of the erythrocyte stock suspension was added and mixed by inversion. The samples were incubated at 37° C. for 2 hours. The samples were mixed by inversion and centrifuged at 10,000 g for 2 minutes. 15 μL of the supernatant from each sample was added to a 384-well place. Absorbances were read at 540 nm using a Biotek H1 Synergy Hybrid Reader (Wanooski, Vt.). Experiments were performed in triplicate and the reported MHC represents an average of three experiments.

[6] = system: C. glabrata; experiment: MIC; assay type: cell-based
[7] = UV-Vis sterol binding assay
Procedure: However, an alternative method was developed for reproducible formation of homogenous AmB and C2′epiAmB sterol sponge aggregates in vitro. Using these preparations, a quantitative UV-Vis and Principle Component (PCA) based assay for determining the apparent KDs for the binding of AmB and C2′epiAmB to ergosterol and cholesterol (FIGS. 5A-5D) was developed.
UV-Vis Binding Assay (FIG. 21A): The protocol for the sterol binding assay (UV-Vis) was developed in our lab. Compounds were dissolved in DMSO at a final concentration of 1 mM. Sterol were first dissolved in CHCl3 (>200 mM) and then diluted to 1 mM concentration with DMSO. To synthesize the complex 1 ul of compound solution was taken in a clean eppendorf tube (2 ml) and sterol solution (volume depends on the stoichiometry) was added to it and the volume was made up to 20 ul with DMSO. 0.98 ml of PBS buffer was added to the Eppendorf tube and mixed properly. The absorbance of the solution was measured after 30 mins of incubation.

[8] = system: C. krusei; experiment: MIC; assay type: cell-based
[9] = system: A. fumigatus 1100; experiment: MIC; assay type: cell-based
[10] = system: C. albicans; experiment: MIC; assay type: cell-based
[11] = system: A. fumigatus 1163; experiment: MIC; assay type: cell-based
[12] = system: human red blood cells and primary hREC; experiment: Toxicity to human cells; assay type: cell-based
Text: (§1) This key discovery opened a path to the rational development of a non-toxic AmB variant. To probe its predicted role in sterol binding, the hydroxyl group was synthetically deleted at the C2′ position on the mycosamine appendage. […] Consistent with the sterol sponge model, this derivative retained good activity against yeast but, most importantly, was nontoxic to human red blood cells and primary (hREC) (FIG. 2B).
(§2) A practical 11-step synthesis of C2′epiAmB using a frontier site-selective acylation method was developed (FIG. 4). Wilcock, B. C. et al., Nat Chem 2012, 4 (12), 996-1003; Uno, B. E. A synthesis enabled understanding of Amphotericin B leading to derivatives with improved therapeutic indices. University of Illinois at Urbana-Champaign, 2014. The sterol binding and cell killing activities was then determined.

[13] = isothermal titration calorimetry (ITC) sterol binding; details: for Cholesterol binding by ITC: within the detection limits of ITC
Text: as §1, §2

[14] = system: 40 Aspergillus clinical isolates, including azole-resistant A. fumigatus, A. flavus, and A. terreus; experiment: Antifungal testing against 40 Aspergillus clinical isolates (Fungus Testing Laboratory); assay type: cell-based
[15] = system: C. albicans; experiment: Murine model of invasive candidiasis, neutropenic ICR/Swiss mice; assay type: in vivo; details: single IP injection, deoxycholate complex, 16 mg/kg dose
Text: Andes, D. et al., Antimicrobial agents and chemotherapy 2001, 45 (3), 922-6. In fact, the PD parameter that best correlates with outcome is Cmax-/MIC. The same was subsequently observed in a pulmonary model of invasive aspergillosis. Wiederhold, N. P. et al., Antimicrobial agents and chemotherapy 2006, 50 (2), 469-73.

[16] = system: A. fumigatus (AF293, A1163, ATC204305, AF91); assay type: cell-based
[17] = system: rats; experiment: IV toxicity in rats (BUN, ALT/AST, mortality, Cmax); assay type: in vivo; details: IV 2, 10, and 17.5 mg/kg (the highest dose tested)
Procedure: >100 mg of C2′epiAmB was prepared, formulated it as the corresponding deoxycholate complex, and evaluated this derivative head-to-head with AmB-deoxycholate for toxicity and efficacy in animal models.

[18] = biological target: CYP2D6 (Homo sapiens, UniProt P10635); experiment: CYP Inhibition; details: human
CYP2D6, sequence (P10635 whole entry): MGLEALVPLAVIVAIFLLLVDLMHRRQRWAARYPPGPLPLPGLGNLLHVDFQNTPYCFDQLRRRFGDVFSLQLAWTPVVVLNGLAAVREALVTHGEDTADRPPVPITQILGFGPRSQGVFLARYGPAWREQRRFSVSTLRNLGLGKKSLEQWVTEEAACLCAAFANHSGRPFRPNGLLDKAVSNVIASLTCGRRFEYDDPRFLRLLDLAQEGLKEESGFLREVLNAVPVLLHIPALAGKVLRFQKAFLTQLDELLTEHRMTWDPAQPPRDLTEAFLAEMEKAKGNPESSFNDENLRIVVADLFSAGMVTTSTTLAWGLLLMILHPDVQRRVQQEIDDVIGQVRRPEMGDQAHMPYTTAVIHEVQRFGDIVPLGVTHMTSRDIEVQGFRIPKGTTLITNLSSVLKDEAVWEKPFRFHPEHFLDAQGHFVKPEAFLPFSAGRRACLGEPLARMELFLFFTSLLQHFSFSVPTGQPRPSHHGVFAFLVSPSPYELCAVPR
Procedure: (§3) The working solutions of the test compounds and the standard inhibitors were prepared in DMSO (100× final concentration). 20 ul of substrate solution (5 in 1 cocktail) was added to the wells followed by 2 ul test compound solution was added. 158 ul of human liver microsome (HLM) was added to all the wells of the incubated plate and warmed to 37° C. for 10 mins. 20 ul of NADPH cofactor solution was then added to all the wells of incubated plate and incubated at 37° C. for 10 mins. At the time point the reaction was quenched by adding 400 uL of cold stop solution. The samples were centrifuged at 4000 rpm for 20 mins to precipitate protein. 100 ul supernatant was diluted with 100 ul of ultra pure water and analyzed using LCMS.

[19] = biological target: CYP2C9 (Homo sapiens, UniProt P11712); experiment: CYP Inhibition; details: human
CYP2C9, sequence (P11712 whole entry): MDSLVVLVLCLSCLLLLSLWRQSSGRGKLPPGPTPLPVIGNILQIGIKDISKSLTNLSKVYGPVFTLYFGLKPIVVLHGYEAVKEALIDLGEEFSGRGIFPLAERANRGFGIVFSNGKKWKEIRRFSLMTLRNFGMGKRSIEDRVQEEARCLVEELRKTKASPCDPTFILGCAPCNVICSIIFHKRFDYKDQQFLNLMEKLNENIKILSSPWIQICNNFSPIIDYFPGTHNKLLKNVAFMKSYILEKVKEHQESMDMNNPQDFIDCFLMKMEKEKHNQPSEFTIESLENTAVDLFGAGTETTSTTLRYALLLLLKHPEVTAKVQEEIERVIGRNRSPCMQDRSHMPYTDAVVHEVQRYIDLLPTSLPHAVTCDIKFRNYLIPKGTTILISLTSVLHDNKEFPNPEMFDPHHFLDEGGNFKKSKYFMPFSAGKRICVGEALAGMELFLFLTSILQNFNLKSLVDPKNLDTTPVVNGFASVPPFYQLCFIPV
Procedure: as §3

SMILES: CNC(=O)C1C(O)CC2(O)CC(O)CC(O)C(O)CCC(O)CC(O)CC(=O)OC(C)C(C)C(O)C(C)C=CC=CC=CC=CC=CC=CC=CC(OC3OC(C)C(O)C(N)C3O)CC1O2 (centres unmarked) [BB]
- MIC C. tropicalis [1]: 0.5 µM (≈ 0.469 µg/mL)
- MIC C. albicans SN250 [2]: 0.5 µM (≈ 0.469 µg/mL)
- MIC A. fumigatus 91 [3]: 4 µM (≈ 3.75 µg/mL)
- MIC [4]: 1.734 µM
- Average MIC for AmB analogue [4]: 0.336 μM
- MHC [5]: >500 µM
- MIC C. glabrata [6]: 0.375 µM (≈ 0.351 µg/mL)
- Cholesterol Binding [7]: No
- MIC C. krusei [8]: 2 µM (≈ 1.87 µg/mL)
- MIC A. fumigatus 1100 [9]: 2 µM (≈ 1.87 µg/mL)
- MIC C. albicans [10]: 0.5 µM (≈ 0.469 µg/mL)
- MIC A. fumigatus 1163 [11]: 4 µM (≈ 3.75 µg/mL)

SMILES: CC1C=CC=CC=CC=CC=CC=CC=CC(OC2OC(C)C(O)C(N)C2O)CC2OC(O)(CC(O)CC(O)C(O)CCC(O)CC(O)CC(=O)OC(C)C(C)C1O)CC(O)C2C(=O)NCCN (centres unmarked) [BC]
- MIC C. tropicalis [1]: 0.5 µM (≈ 0.483 µg/mL)
- MIC C. albicans SN250 [2]: 0.5 µM (≈ 0.483 µg/mL)
- MIC A. fumigatus 91 [3]: 4 µM (≈ 3.86 µg/mL)
- MIC [4]: 1.750 µM
- Average MIC for AmB analogue [4]: 0.563 μM
- MHC [5]: 250 µM
- MIC C. glabrata [6]: 0.5 µM (≈ 0.483 µg/mL)
- Cholesterol Binding [7]: Yes?
- MIC C. krusei [8]: 4 µM (≈ 3.86 µg/mL)
- MIC A. fumigatus 1100 [9]: 2 µM (≈ 1.93 µg/mL)
- MIC C. albicans [10]: 0.5 µM (≈ 0.483 µg/mL)
- MIC A. fumigatus 1163 [11]: 2 µM (≈ 1.93 µg/mL)

- Ergosterol binding by ITC [13]: bind ergosterol
- Cholesterol binding by ITC [13]: not cholesterol
SMILES: CC1C=CC=CC=CC=CC=CC=CC=CC(OC2CC(N)C(O)C(C)O2)CC2OC(O)(CC(O)CC(O)C(O)CCC(O)CC(O)CC(=O)OC(C)C(C)C1O)CC(O)C2C(=O)O (centres unmarked) [C2′deOAmB, reference compound]
- Toxicity to human cells [12]: nontoxic

SMILES: C[C@@H]1[C@H](O)[C@@H](C)/C=C/C=C/C=C/C=C/C=C/C=C/C=C/[C@H](O[C@@H]2O[C@H](C)[C@@H](O)[C@H](N)[C@H]2O)C[C@@H]2O[C@](O)(C[C@@H](O)C[C@@H](O)[C@H](O)CC[C@@H](O)C[C@@H](O)CC(=O)O[C@H]1C)C[C@H](O)[C@H]2C(=O)O [C2′epiAmB, C2′epi-Amphotericin B]
- Toxicity to human cells [12]: not human cells
- MIC C. albicans SN250 [2]: 0.5 µM (≈ 0.462 µg/mL)
- Times less potent than AmB [14]: 2-16 times
- Average MIC ([4]; Table 13, C16 amides of C2’epiAmB): 9030 µM
- MIC [4]: >6.844 µM
- MHC [5]: >500 µM
- Ergosterol binding by ITC [13]: bind ergosterol
- Cholesterol binding by ITC [13]: not (detectably) cholesterol
- Cholesterol Binding [7]: No
- Fungal burden, murine invasive candidiasis [15]: outstanding reductions in fungal burden
- Times less potent than AmB [16]: > 32 times
- BUN, ALT/AST and mortality, rats [17]: no elevations in BUN or ALT/AST and no mortality

SMILES: C=C[C@H]1C[N@@]2CC[C@H]1C[C@@H]2[C@@H](O)c1ccnc2ccc(OC)cc12 [Quinidine, reference compound]
- inhibition at 10 min, 3 µM [18]: 95.3%

SMILES: Nc1ccc(S(=O)(=O)Nc2ccnn2-c2ccccc2)cc1 [Sulfaphenazole, reference compound]
- inhibition at 10 min, 3 µM [19]: 69.7%
